From PubChem BioAssay (NCI)
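1) Cells in 96-well plates. 2) Compound, 48 h, 5 concentrations. 3) Linear interpolation between surrounding doses. 4) Unreached endpoint = highest concentration. The concentration for full growth arrest is given as TGI.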

What was measured:
Test in all cases: NCI anticancer screen, dose series, 48 h
786-0 renal = system: 786-0 renal
A498 renal = system: A498 renal
A549 NSCLC = system: A549 NSCLC
ACHN renal = system: ACHN renal
CAKI-1 renal = system: CAKI-1 renal
CCRF-CEM leukemia = system: CCRF-CEM leukemia
COLO 205 colon = system: COLO 205 colon
DLD-1 colon = system: DLD-1 colon
DMS 114 small cell lung = system: DMS 114 small cell lung
DMS 273 small cell lung = system: DMS 273 small cell lung
EKVX NSCLC = system: EKVX NSCLC
HCC-2998 colon = system: HCC-2998 colon
HCT-116 colon = system: HCT-116 colon
HCT-15 colon = system: HCT-15 colon
HL-60(TB) leukemia = system: HL-60(TB) leukemia
HOP-18 NSCLC = system: HOP-18 NSCLC
HOP-62 NSCLC = system: HOP-62 NSCLC
HOP-92 NSCLC = system: HOP-92 NSCLC
HT29 colon = system: HT29 colon
IGROV1 ovarian = system: IGROV1 ovarian
K-562 leukemia = system: K-562 leukemia
KM12 colon = system: KM12 colon
KM20L2 colon = system: KM20L2 colon
LOX IMVI melanoma = system: LOX IMVI melanoma
LXFL 529 NSCLC = system: LXFL 529 NSCLC
M14 melanoma = system: M14 melanoma
M19-MEL melanoma = system: M19-MEL melanoma
MALME-3M melanoma = system: MALME-3M melanoma
MOLT-4 leukemia = system: MOLT-4 leukemia
NCI-H226 lung = system: NCI-H226 lung
NCI-H23 lung = system: NCI-H23 lung
NCI-H460 lung = system: NCI-H460 lung
NCI-H522 lung = system: NCI-H522 lung
OVCAR-3 ovarian = system: OVCAR-3 ovarian
OVCAR-4 ovarian = system: OVCAR-4 ovarian
OVCAR-5 ovarian = system: OVCAR-5 ovarian
OVCAR-8 ovarian = system: OVCAR-8 ovarian
RXF 393 renal = system: RXF 393 renal
SF-268 CNS = system: SF-268 CNS
SF-295 CNS = system: SF-295 CNS
SF-539 CNS = system: SF-539 CNS
SK-MEL-2 melanoma = system: SK-MEL-2 melanoma
SK-MEL-28 melanoma = system: SK-MEL-28 melanoma
SK-MEL-5 melanoma = system: SK-MEL-5 melanoma
SK-OV-3 ovarian = system: SK-OV-3 ovarian
SN12C renal = system: SN12C renal
SNB-19 CNS = system: SNB-19 CNS
SNB-75 CNS = system: SNB-75 CNS
SNB-78 CNS = system: SNB-78 CNS
SR leukemia = system: SR leukemia
SW-620 colon = system: SW-620 colon
TK-10 renal = system: TK-10 renal
U251 CNS = system: U251 CNS
UACC-257 melanoma = system: UACC-257 melanoma
UACC-62 melanoma = system: UACC-62 melanoma
UO-31 renal = system: UO-31 renal
XF 498 CNS = system: XF 498 CNS

O=C(/C=C/c1ccc(Br)cc1)c1ccc(NCc2nc3ccccc3[nH]2)cc1
TGI (786-0 renal): > 56.2 µM
TGI (A498 renal): > 87.1 µM
TGI (A549 NSCLC): > 54.7 µM
TGI (ACHN renal): 81.2 µM
TGI (CAKI-1 renal): > 57.4 µM
TGI (CCRF-CEM leukemia): > 40.1 µM
TGI (COLO 205 colon): 13 µM
TGI (DLD-1 colon): > 67.4 µM
TGI (DMS 114 small cell lung): > 37.5 µM
TGI (DMS 273 small cell lung): > 54.6 µM
TGI (EKVX NSCLC): > 100 µM
TGI (HCC-2998 colon): 88.5 µM
TGI (HCT-116 colon): > 49.1 µM
TGI (HCT-15 colon): 17.3 µM
TGI (HL-60(TB) leukemia): > 22.9 µM
TGI (HOP-18 NSCLC): > 100 µM
TGI (HOP-62 NSCLC): > 61.2 µM
TGI (HOP-92 NSCLC): 28.3 µM
TGI (HT29 colon): 27.4 µM
TGI (IGROV1 ovarian): > 76.3 µM
TGI (K-562 leukemia): > 37.3 µM
TGI (KM12 colon): > 100 µM
TGI (KM20L2 colon): > 100 µM
TGI (LOX IMVI melanoma): 6.91 µM
TGI (LXFL 529 NSCLC): > 46.2 µM
TGI (M14 melanoma): > 100 µM
TGI (M19-MEL melanoma): > 100 µM
TGI (MALME-3M melanoma): > 100 µM
TGI (MOLT-4 leukemia): 39.9 µM
TGI (NCI-H226 lung): 54.3 µM
TGI (NCI-H23 lung): > 42.5 µM
TGI (NCI-H460 lung): > 42.2 µM
TGI (NCI-H522 lung): 19.4 µM
TGI (OVCAR-3 ovarian): > 100 µM
TGI (OVCAR-4 ovarian): > 62.6 µM
TGI (OVCAR-5 ovarian): > 100 µM
TGI (OVCAR-8 ovarian): > 52.6 µM
TGI (RXF 393 renal): 24.4 µM
TGI (SF-268 CNS): 33 µM
TGI (SF-295 CNS): > 46.3 µM
TGI (SF-539 CNS): 24.3 µM
TGI (SK-MEL-2 melanoma): > 82.1 µM
TGI (SK-MEL-28 melanoma): > 100 µM
TGI (SK-MEL-5 melanoma): > 46.8 µM
TGI (SK-OV-3 ovarian): > 69.3 µM
TGI (SN12C renal): 66.5 µM
TGI (SNB-19 CNS): > 53.5 µM
TGI (SNB-75 CNS): 20.6 µM
TGI (SNB-78 CNS): 16.6 µM
TGI (SR leukemia): 84.6 µM
TGI (SW-620 colon): 21.2 µM
TGI (TK-10 renal): > 55.3 µM
TGI (U251 CNS): > 36.8 µM
TGI (UACC-257 melanoma): > 63.4 µM
TGI (UACC-62 melanoma): > 76.2 µM
TGI (UO-31 renal): 31.2 µM
TGI (XF 498 CNS): 49.3 µM
